PubChem BioAssay AID342 (DTP/NCI, 2004)
Values joined by “and” are separate entries in the source; they are usually repeats but may differ in a detail not shown here. Equal values may be shown once.

System: Swiss mice, Sarcoma 180 sc, mean tumor weight T/C
Assay: NCI In Vivo Anticancer Drug Screen. Data for tumor model Sarcoma 180 (subcutaneous) in Swiss mice
Details: endpoint: mean tumor weight, higher = larger tumour
Outline: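 Mice bearing transplanted tumors were treated with compound, and survival or tumor size was measured. Values are expressed as the treated-group measurement (T) divided by the vehicle-treated control measurement (C).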

[1] = dose: 12.5 mg/kg/injection, schedule: Q#A X014 (ip), vehicle: carboxymethylcellulose (CMC)
[2] = dose: 25.0 mg/kg/injection, schedule: Q#A X014 (ip), vehicle: carboxymethylcellulose (CMC)
[3] = dose: 80.0 mg/kg/injection, schedule: Q01DX007 (ip), vehicle: carboxymethylcellulose (CMC)
[4] = dose: 125.0 mg/kg/injection, schedule: Q01DX007 (ip), vehicle: saline

O=c1[nH]c(=O)n(C2CC(O)C(CO)O2)cc1F (stereo unspecified)
T/C (dose: 2.0 mg/kg/injection, schedule: Q01DX007 (ip), vehicle: carboxymethylcellulose (CMC)): 97 % of control
T/C (dose: 4.0 mg/kg/injection, schedule: Q01DX007 (ip), vehicle: carboxymethylcellulose (CMC)): 108 % of control
T/C (dose: 8.0 mg/kg/injection, schedule: Q01DX007 (ip), vehicle: carboxymethylcellulose (CMC)): 97 % of control
T/C (dose: 10.0 mg/kg/injection, schedule: Q#A X014 (ip), vehicle: carboxymethylcellulose (CMC)): 27 % of control
T/C [1]: 28 % of control
T/C (dose: 16.0 mg/kg/injection, schedule: Q01DX007 (ip), vehicle: carboxymethylcellulose (CMC)): 94 % of control
T/C (dose: 20.0 mg/kg/injection, schedule: Q01DX007 (ip), vehicle: saline): 119 % of control
T/C (dose: 20.0 mg/kg/injection, schedule: Q#A X014 (ip), vehicle: carboxymethylcellulose (CMC)): 14 % of control
T/C [2]: 10 % of control
T/C (dose: 40.0 mg/kg/injection, schedule: Q01DX007 (ip), vehicle: saline): 86 % of control
T/C (dose: 40.0 mg/kg/injection, schedule: Q#A X014 (ip), vehicle: carboxymethylcellulose (CMC)): 4 % of control
T/C [3]: 29 % of control
T/C (dose: 80.0 mg/kg/injection, schedule: Q01DX007 (ip), vehicle: saline): 109 % of control
T/C (dose: 80.0 mg/kg/injection, schedule: Q#A X014 (ip), vehicle: carboxymethylcellulose (CMC)): 15 % of control
T/C (dose: 106.6 mg/kg/injection, schedule: Q01DX007 (ip), vehicle: carboxymethylcellulose (CMC)): 7 % of control
T/C (dose: 128.0 mg/kg/injection, schedule: Q01DX007 (ip), vehicle: carboxymethylcellulose (CMC)): 8 % of control
T/C (dose: 160.0 mg/kg/injection, schedule: Q01DX007 (ip), vehicle: carboxymethylcellulose (CMC)): 5 % of control
T/C (dose: 160.0 mg/kg/injection, schedule: Q01DX007 (ip), vehicle: saline): 56 % of control

CC(=O)C(CCC(=O)O)(CCC(=O)O)c1ccccc1
T/C (dose: 15.0 mg/kg/injection, schedule: Q#A X014 (ip), vehicle: other): 83 % of control
T/C (dose: 30.0 mg/kg/injection, schedule: Q#A X014 (ip), vehicle: other): 106 % of control
T/C (dose: 60.0 mg/kg/injection, schedule: Q#A X014 (ip), vehicle: other): 98 % of control
T/C (dose: 120.0 mg/kg/injection, schedule: Q#A X014 (ip), vehicle: other): 112 % of control

S=P(N1CCCCC1)(N1CC1)N1CC1
T/C (dose: 55.0 mg/kg/injection, schedule: Q01DX007 (ip), vehicle: saline): 26 % of control
T/C (dose: 84.0 mg/kg/injection, schedule: Q01DX007 (ip), vehicle: saline): 26 % of control
T/C [4]: 14 % of control
T/C (dose: 188.0 mg/kg/injection, schedule: Q01DX007 (ip), vehicle: saline): 8 % of control

COC1=C(N(C)C)C(=O)c2ncccc2C1=O
T/C (dose: 12.5 mg/kg/injection, schedule: Q01DX007 (ip), vehicle: water): 86 % of control
T/C (dose: 25.0 mg/kg/injection, schedule: Q01DX007 (ip), vehicle: water): 72 % of control
T/C (dose: 50.0 mg/kg/injection, schedule: Q01DX007 (ip), vehicle: water): 92 % of control

CC(=O)NC(CCC(=O)C=[N+]=N)C(=O)O (stereo unspecified)
T/C (dose: 0.03 mg/kg/injection, schedule: Q01DX007 (ip), vehicle: water): 62 % of control and 80 % of control
T/C (dose: 0.05 mg/kg/injection, schedule: Q01DX007 (ip), vehicle: water): 58 % of control and 63 % of control
T/C (dose: 0.1 mg/kg/injection, schedule: Q01DX007 (ip), vehicle: water): 13 % of control and 26 % of control
T/C (dose: 0.2 mg/kg/injection, schedule: Q01DX007 (ip), vehicle: water): 1 % of control

NC1(C(=O)O)CCCC1
T/C (dose: 4.62 mg/kg/injection, schedule: Q#A X014 (ip), vehicle: carboxymethylcellulose (CMC)): 86 % of control
T/C (dose: 6.25 mg/kg/injection, schedule: Q#A X014 (ip), vehicle: carboxymethylcellulose (CMC)): 72 % of control
T/C (dose: 9.25 mg/kg/injection, schedule: Q#A X014 (ip), vehicle: carboxymethylcellulose (CMC)): 101 % of control
T/C [1]: 101 % of control
T/C (dose: 15.0 mg/kg/injection, schedule: Q01DX007 (ip), vehicle: water): 75 % of control
T/C (dose: 18.5 mg/kg/injection, schedule: Q#A X014 (ip), vehicle: carboxymethylcellulose (CMC)): 77 % of control
T/C (dose: 25.0 mg/kg/injection, schedule: Q01DX007 (ip), vehicle: saline): 75 % of control
T/C [2]: 75 % of control
T/C (dose: 30.0 mg/kg/injection, schedule: Q01DX007 (ip), vehicle: water): 78 % of control
T/C (dose: 33.0 mg/kg/injection, schedule: Q#A X014 (ip), vehicle: saline): 56 % of control
T/C (dose: 37.0 mg/kg/injection, schedule: Q#A X014 (ip), vehicle: carboxymethylcellulose (CMC)): 50 % of control
T/C (dose: 50.0 mg/kg/injection, schedule: Q01DX007 (ip), vehicle: saline): 64 % of control
T/C (dose: 50.0 mg/kg/injection, schedule: Q#A X014 (ip), vehicle: carboxymethylcellulose (CMC)): 35 % of control
T/C (dose: 50.0 mg/kg/injection, schedule: Q#A X014 (ip), vehicle: saline): 44 % of control
T/C (dose: 60.0 mg/kg/injection, schedule: Q01DX007 (ip), vehicle: water): 35 % of control
T/C (dose: 62.0 mg/kg/injection, schedule: Q01DX007 (ip), vehicle: saline): 61 % of control
T/C (dose: 75.0 mg/kg/injection, schedule: Q#A X014 (ip), vehicle: saline): 23 % of control
T/C (dose: 100.0 mg/kg/injection, schedule: Q01DX007 (ip), vehicle: saline): 47 % of control
T/C (dose: 120.0 mg/kg/injection, schedule: Q01DX007 (ip), vehicle: water): 22 % of control
T/C [4]: 30 % of control
T/C (dose: 200.0 mg/kg/injection, schedule: Q01DX007 (ip), vehicle: saline): 22 % of control

O=[N+]([O-])c1ccc2c(N=Nc3c(O)ccc4ccccc34)c(O)cc(S(=O)(=O)O)c2c1
T/C (dose: 65.0 mg/kg/injection, schedule: Q01DX007 (ip), vehicle: saline): 70 % of control
T/C (dose: 95.0 mg/kg/injection, schedule: Q01DX007 (ip), vehicle: saline): 82 % of control
T/C (dose: 145.0 mg/kg/injection, schedule: Q01DX007 (ip), vehicle: saline): 66 % of control
T/C (dose: 330.0 mg/kg/injection, schedule: Q01DX007 (ip), vehicle: saline): 49 % of control

Oc1ccccc1C(Nc1nc2ccccc2s1)c1ccc2cccnc2c1O (stereo unspecified)
T/C (dose: 62.0 mg/kg/injection, schedule: Q01DX007 (ip), vehicle: other): 94 % of control
T/C (dose: 125.0 mg/kg/injection, schedule: Q01DX007 (ip), vehicle: other): 97 % of control
T/C (dose: 250.0 mg/kg/injection, schedule: Q01DX007 (ip), vehicle: other): 46 % of control

CCCCNc1nc(NCCCC)c2nsnc2n1
T/C [3]: 46 % of control
T/C (dose: 100.0 mg/kg/injection, schedule: Q01DX007 (ip), vehicle: carboxymethylcellulose (CMC)): 56 % of control

O=S(=O)(O)C(Nc1ccccc1)c1ccccc1 (stereo unspecified)
T/C (dose: 24.0 mg/kg/injection, schedule: Q01DX007 (ip), vehicle: carboxymethylcellulose (CMC)): 80 % of control
T/C (dose: 36.0 mg/kg/injection, schedule: Q01DX007 (ip), vehicle: carboxymethylcellulose (CMC)): 94 % of control
T/C (dose: 54.0 mg/kg/injection, schedule: Q01DX007 (ip), vehicle: carboxymethylcellulose (CMC)): 92 % of control
T/C (dose: 81.0 mg/kg/injection, schedule: Q01DX007 (ip), vehicle: carboxymethylcellulose (CMC)): 93 % of control
T/C (dose: 162.0 mg/kg/injection, schedule: Q01DX007 (ip), vehicle: carboxymethylcellulose (CMC)): 113 % of control
T/C (dose: 324.0 mg/kg/injection, schedule: Q01DX007 (ip), vehicle: carboxymethylcellulose (CMC)): 84 % of control

Clc1ccc2c(c1)Cc1cc(N=Cc3ccccc3Cl)ccc1-2
T/C (dose: 42.0 mg/kg/injection, schedule: Q01DX007 (ip), vehicle: other): 77 % of control
T/C (dose: 64.0 mg/kg/injection, schedule: Q01DX007 (ip), vehicle: other): 108 % of control
T/C (dose: 66.0 mg/kg/injection, schedule: Q01DX007 (ip), vehicle: saline): 57 % of control
T/C (dose: 99.0 mg/kg/injection, schedule: Q01DX007 (ip), vehicle: saline): 52 % of control
T/C (dose: 148.0 mg/kg/injection, schedule: Q01DX007 (ip), vehicle: saline): 38 % of control
T/C (dose: 222.0 mg/kg/injection, schedule: Q01DX007 (ip), vehicle: other): 42 % of control and 46 % of control
T/C (dose: 222.0 mg/kg/injection, schedule: Q01DX007 (ip), vehicle: saline): 31 % of control
T/C (dose: 333.0 mg/kg/injection, schedule: Q01DX007 (ip), vehicle: other): 20 % of control and 40 % of control
T/C (dose: 492.0 mg/kg/injection, schedule: Q01DX007 (ip), vehicle: carboxymethylcellulose (CMC)): 40 % of control
T/C (dose: 500.0 mg/kg/injection, schedule: Q01DX007 (ip), vehicle: other): 22 % of control
T/C (dose: 750.0 mg/kg/injection, schedule: Q01DX007 (ip), vehicle: carboxymethylcellulose (CMC)): 31 % of control
T/C (dose: 750.0 mg/kg/injection, schedule: Q01DX007 (ip), vehicle: other): 20 % of control
